# Laboratory results reported in patent publication US20130123357A1, “Methods for Providing Enhanced Resveratrol Activity Using 4-Acetoxy-Resveratrol” (BRIGHAM YOUNG UNIVERSITY, priority 2010, published 2013).
# Experiments:
# [1] = tested on: TGF (transforming growth factor) beta type II receptor; test: Gene array qPCR, human dermal equivalent: TGF beta type II receptor; type: cell-based; settings: 1.0% 4AR in DMSO, human skin equivalent, 24 hours, mRNA by qPCR
# Excerpt: (§1) In this gene array experiment, we examined the ability of 4AR at a one percent concentration in DMSO (where 100% DMSO served as the vehicle) to either stimulate or inhibit several important genes and quantify directly the transcribed messenger RNA (mRNA) levels by Taqman real time PCR. The test material was placed onto a biological barrier (human dermal equivalent) using a MatTek “ready-to-use” in vitro organotypic tissue equivalent, based on well-documented and validated protocols, using the EpiDerm™ Model EPI-200 Kit. The MatTek kits uses normal (non-transformed) donated human cells as the basis for all of its tissue equivalents. These cells are grown (cultured) in standard Millipore Millicell™ Single Well Tissue Culture Plate Inserts at the air liquid interface or ALI. Apical (top) surface of tissue is exposed to air allowing for direct application of test articles. […] Once the 4 AR test material penetrated the human skin barrier equivalent the gene chip was activated and subsequently mRNA levels were quantified and the results represent stimulation or inhibition of a specific gene.
# (§2) To investigate the effects of 4AR on the expression of genes associated with the extracellular matrix (ECM) of the skin, qPCR experiments were conducted using the tissue cultures (model system described above) with subsequent quantification of mRNA levels from […] tissue/cells. […]
# Protein Kinase C alpha = test: Gene array qPCR, human dermal equivalent: Protein Kinase C alpha; type: cell-based; settings: 1.0% 4AR in DMSO, human skin equivalent, 24 hours, mRNA by qPCR
# Excerpt: as §1, §2
# [2] = Shelf-life stability of the synthesized material; type: physicochemical
# Excerpt: The synthetic method described above uses a direct, efficient synthesis at a low cost, and results in improved stability (longer shelf life) where it remains a white crystalline material for over 2 years, as well as higher biological activity (increase absorption, lower dose and longer half-life) with various cosmetic, nutraceuticals (nutritional supplements) and pharmaceutical applications, including (a) anti-aging, anti-oxidant, (b) anti-inflammatory, (c) anti-cancer, (d) neuroprotection (for improved brain health), (e) cardiovascular health, (f) prostate health and (g) skin health, as described below in the following examples.
# [3] = tested on: Procollagen III (alpha 1); test: Gene array qPCR, human dermal equivalent: Procollagen III; type: cell-based; settings: 1.0% 4AR in DMSO, human skin equivalent, 24 hours, mRNA by qPCR
# Excerpt: as §1, §2
# [4] = tested on: IL-1RII (interleukin 1RII); test: Gene array qPCR, human dermal equivalent: IL-1RII; type: cell-based; settings: 1.0% 4AR in DMSO, human skin equivalent, 24 hours, mRNA by qPCR
# Excerpt: as §1, §2
# [5] = tested on: human dermal monolayer fibroblasts; test: Collagen deposition by ELISA for Human Type I collagen C-terminal propeptide; type: cell-based; settings: approximately 9 μM, 48 hours, vehicle 0.1% DMSO
# Protocol: 4′-Acetoxy-resveratrol was tested to determine whether it can stimulate collagen deposition in human monolayer dermal fibroblasts in the following examples. In this assay, we first determined the toxicity of the test materials (untreated cells, positive control-ascorbate, vehicle=0.1% DMSO, and a range of the 4′-acetoxy-resveratrol molecule, from approximately 10 nM to 10 μM).
# The human dermal monolayer fibroblasts were exposed to the test materials for approximately 48 hours. Thereafter, the samples were processed for MTT and collagen deposition, etc.
# Collagen deposition by ELISA for Human Type I collagen C-terminal propeptide was determined. Dermal fibroblasts synthesize primarily type I collagen, and the cleavage of the C-terminal propeptide is required for deposition into fibrils within the extracellular matrix. […] The amount of cleaved propeptide is directly proportional to the amount of type I collagen deposited, and can be precisely quantified using purified standards and a commercial ELISA kit (Takara Mirus, Inc., Cat. # TAK-MK-101). After 48 hours in the presence of the test materials or controls, culture medium supernatants were removed and immediately analyzed using the ELISA kit according to manufacturer's instructions using a Molecular Devices Vmax plate 96 well plate reader and SoftMax software. […]
# [6] = tested on: S100 Calcium binding protein A8; test: Gene array qPCR, human dermal equivalent: S100 A8; type: cell-based; settings: 1.0% 4AR in DMSO, human skin equivalent, 24 hours, mRNA by qPCR
# Excerpt: as §1, §2
# [7] = tested on: Tissue inhibitor of metalloproteinases 1; test: Gene array qPCR, human dermal equivalent: TIMP1; type: cell-based; settings: 1.0% 4AR in DMSO, human skin equivalent, 24 hours, mRNA by qPCR
# Excerpt: as §1, §2
# Elastin = test: Gene array qPCR, human dermal equivalent: Elastin; type: cell-based; settings: 1.0% 4AR in DMSO, human skin equivalent, 24 hours, mRNA by qPCR
# Excerpt: as §1, §2
# [8] = tested on: S100 Calcium binding protein A9; test: Gene array qPCR, human dermal equivalent: S100 A9; type: cell-based; settings: 1.0% 4AR in DMSO, human skin equivalent, 24 hours, mRNA by qPCR
# Excerpt: as §1, §2
# Cytokeratin 2E = test: Gene array qPCR, human dermal equivalent: Cytokeratin 2E; type: cell-based; settings: 1.0% 4AR in DMSO, human skin equivalent, 24 hours, mRNA by qPCR
# Excerpt: as §1, §2
# [9] = tested on: Superoxide dismutase 2, mitochondrial; test: Gene array qPCR, human dermal equivalent: SOD2; type: cell-based; settings: 1.0% 4AR in DMSO, human skin equivalent, 24 hours, mRNA by qPCR
# Excerpt: as §1, §2
# Laminin 1B = test: Gene array qPCR, human dermal equivalent: Laminin 1B; type: cell-based; settings: 1.0% 4AR in DMSO, human skin equivalent, 24 hours, mRNA by qPCR
# Excerpt: as §1, §2
# Metallothionein 2 = test: Gene array qPCR, human dermal equivalent: Metallothionein 2; type: cell-based; settings: 1.0% 4AR in DMSO, human skin equivalent, 24 hours, mRNA by qPCR
# Excerpt: as §1, §2
# Desmoglein 3 = test: Gene array qPCR, human dermal equivalent: Desmoglein 3; type: cell-based; settings: 1.0% 4AR in DMSO, human skin equivalent, 24 hours, mRNA by qPCR
# Excerpt: as §1, §2
# [10] = tested on: Fos (FBJ murine osteosarcoma viral oncogene); test: Gene array qPCR, human dermal equivalent: Fos; type: cell-based; settings: 1.0% 4AR in DMSO, human skin equivalent, 24 hours, mRNA by qPCR
# Excerpt: as §1, §2
# [11] = tested on: TGF (transforming growth factor) beta; test: Gene array qPCR, human dermal equivalent: TGF beta; type: cell-based; settings: 1.0% 4AR in DMSO, human skin equivalent, 24 hours, mRNA by qPCR
# Excerpt: as §1, §2
# [12] = tested on: TNFRSF1A (Tumor necrosis factor receptor superfamily, member 1A); test: Gene array qPCR, human dermal equivalent: TNFRSF1A; type: cell-based; settings: 1.0% 4AR in DMSO, human skin equivalent, 24 hours, mRNA by qPCR
# Excerpt: as §1, §2
# Type IV collagen alpha 2 = test: Gene array qPCR, human dermal equivalent: Type IV collagen alpha 2; type: cell-based; settings: 1.0% 4AR in DMSO, human skin equivalent, 24 hours, mRNA by qPCR
# Excerpt: as §1, §2
# SIRT1 (Sirtuin 1) = test: Gene array qPCR, human dermal equivalent: SIRT1; type: cell-based; settings: 1.0% 4AR in DMSO, human skin equivalent, 24 hours
# Excerpt: as §1, §2
# [13] = tested on: Tissue Inhibitor of metalloproteinases 2 (TIMP2); test: Gene array qPCR, human dermal equivalent: TIMP2; type: cell-based; settings: 1.0% 4AR in DMSO, human skin equivalent, 24 hours, mRNA by qPCR
# Excerpt: as §1, §2
# Desmocollin 1 = test: Gene array qPCR, human dermal equivalent: Desmocollin 1; type: cell-based; settings: 1.0% 4AR in DMSO, human skin equivalent, 24 hours, mRNA by qPCR
# Excerpt: as §1, §2
# [14] = tested on: FosB (FBJ murine osteosarcoma viral oncogene homolog B); test: Gene array qPCR, human dermal equivalent: FosB; type: cell-based; settings: 1.0% 4AR in DMSO, human skin equivalent, 24 hours, mRNA by qPCR
# Excerpt: as §1, §2
# [15] = tested on: IGF1 (Insulin-like growth factor 1); test: Gene array qPCR, human dermal equivalent: IGF1; type: cell-based; settings: 1.0% 4AR in DMSO, human skin equivalent, 24 hours, mRNA by qPCR
# Excerpt: as §1, §2
compound,measurement,setting,value
"CC(=O)Oc1ccc(C=Cc2cc(O)cc(O)c2)cc1 [4AR, 3,5-dihydroxy-4′-acetoxy stilbene]",TGF beta type II receptor increased by,[1],1.7-fold
same,Protein Kinase C alpha increased by,Protein Kinase C alpha,2.7-fold
same,stability (shelf life): remains a white crystalline material,[2],over 2 years
same,Procollagen III increased by,[3],by 2.2-fold
same,IL-1RII decreased by,[4],1.9-fold
same,increase of collagen deposition compared to vehicle control,[5],65%
same,S100 Calcium binding protein A8 decreased by,[6],2.7-fold
same,Tissue inhibitor of metalloproteinases 1 increased by,[7],2.5-fold
same,Elastin increased by,Elastin,2.8-fold
same,S100 Calcium binding protein A9 decreased by,[8],1.6-fold
same,CK 2E decreased by,Cytokeratin 2E,3.5-fold with
same,"Superoxide dismutase 2, mitochondrial increased by",[9],1.7-fold
same,Laminin 1B increased by,Laminin 1B,1.4-fold with
same,Metallothionein 2 increased by,Metallothionein 2,3.4-fold
same,Desmoglein 3 decreased by,Desmoglein 3,by 1.9-fold
same,Fos increased by,[10],3.4-fold
same,TGF beta increased by,[11],2.0-fold
same,TNFRSF1A decreased by,[12],1.4-fold
same,IV collagen alpha 2 increased by,Type IV collagen alpha 2,1.8-fold
same,SIRT1 mRNA expression increased by,SIRT1 (Sirtuin 1),3.3-fold
same,TIMP2 increased by,[13],1.3-fold
same,Desmocollin 1 decreased by,Desmocollin 1,by 2.4-fold
same,FosB increased by,[14],8.2-fold
same,IGF1 increased by,[15],2.6-fold
